Where two headings read alike, the source gives them in different places.
Columns and labels:
patients [1] = test system: patients
Excerpt: In a clinical study three different concentrations were used; 0.1 wt. %, (10 subjects) 0.5 wt. % (12 subjects) and 1 wt. % (26 subjects).

human subject = test system: human subject
Procedure: In most instances, the treatment is applied on a biweekly basis, however some patients move to daily application based on prespecified protocol criteria. Because the ointment-based composition is known to mix with tear fluid and cause blurry vision, individuals in this study are advised to apply the treatment prior to bed so as to avoid risks associated with reduced vision acuity. […] The in-office applications are conducted at specific, pre-determined time points. In these instances, the treatment is not applied before bed but rather is performed during daylight hours.

patients [2] = conditions: in vivo
Procedure: In a first study patients were instructed to dose in both the evening, between visits, and in the daytime during regular scheduled clinic visits as part of the study protocol. Study patients received a 2-week run-in on a placebo which was administered twice weekly for a period of two weeks.
Adverse events comprise a feeling of grittiness, foreign body feeling, stinging, blurry vision, redness, tired eyes, water eyes, irritation, lid abnormalities, burning, corneal abrasion, photophobia, staining, or dry eye disorder (DED).

[3] = test system: meibomian gland disorder (MGD) patients; conditions: twice a week, 3 month time point
Procedure: The drug was applied twice a week and final evaluation was done at the 3 month time point in which the primary outcome of Meibomian Gland Score (MGS) was assessed.

rabbits = conditions: dose about 4 mg SeS2, concentration up to 2.5 wt. %, ointment applied over the eyelid margin
seborrheic blepharitis = conditions: cited from earlier work
[4] = in vivo; cited from earlier work

selenium disulfide [SeS2]
development of keratitis (patients [1]; human, in vivo): no development of keratitis
occurrence of keratitis with bedtime applications (patients [1]; human, in vivo): without a single occurrence of keratitis
subjects who developed keratitis or keratitis related symptoms (patients [1]; human, in vivo): four
total OSDI, VAS and SPEED (patients [1]; one patient, 1 wt. %, first month, twice weekly at home before bedtime): significant improvement
health outcomes by OSDI, VAS and SPEED (human subject; at least one patient, 1 wt. %, one month of treatment): improved health outcomes
keratitis (human subject; in vivo): Keratitis is not observed
patients noting symptoms of keratitis (human subject; in vivo): four
reduction in the incidence of ocular adverse events (patients [2]): 75%
reduction of rate of ocular adverse events (ocular AE) (patients [2]): at least 50%
average change from baseline in Meibomian Gland Score (MGS) ([3]; 9 patients applying with finger): 10 (+/−8.2)
average change from baseline in Meibomian Gland Score (MGS) ([3]; 13 patients using the applicator (swab)): 2.3 (+/−4.4)
tolerability (rabbits): well tolerated
efficacy in treating seborrheic blepharitis (seborrheic blepharitis; SeS2 0.5%, conclusion of most investigators): effective
adverse events following topical ocular use (seborrheic blepharitis; in vivo): superficial punctate keratitis and conjunctivitis
safe concentration of ophthalmic preparation for use in humans (seborrheic blepharitis; in vivo): 0.5%
adverse effect of shampooing [4]: diffuse hair loss
contact dermatitis or photo-contact dermatitis in tinea versicolor treatment [4]: None of the investigators encountered a single case
skin irritant effect [4]: can produce contact dermatitis
skin reaction after shampoo application [4]: circumscribed eczematous plaques on the light-exposed areas
time to resolution of hair loss after discontinuance [4]: 1-2 weeks

— patent publication US12697352B2, “Instructions for composition and sensitivity” (Azura Ophthalmics Ltd., priority 2020, dated 2026)
